Experimental data published in patent US20260069581A1, “METHODS AND COMPOSITIONS FOR CANCER THERAPY” (OHIO STATE INNOVATION FOUNDATION, priority 2020, published 2026).

Tests used:
[1] = in vivo; cited from earlier work
[2] = system: MOLM13 and Kasumi-1 cell lines; assay: Annexin/PI flow cytometry apoptosis of shRNA-stable cells treated with KPT-9274; assay type: cell-based, human; conditions: KPT-9274 at sublethal IC20 dose, 48 hour
Description: FIGS. 2A-2M show show representative data for genetic depletion of HDAC8 or SIRT6 increases vulnerability of AML cell lines to KPT-9274 treatment. FIGS. 2A-2D show data for knockout efficiency of CDS- and 3′UTR-targeting shRNAs in MOLM13 and Kasumi-1 cells as assessed with Western blotting (FIGS. 2A, 2D) with GAPDH as a loading control. Densitometric quantification of protein band intensity is shown (n=2) in FIGS. 2B, 2E. FIGS. 2E-2H show representative data for depletion of HDAC8 or SIRT6 (as indicated in graphs) and sensitization of AML cell lines to KPT-9274 treatment. Dose-response curves of shRNA-stable MOLM13 and Kasumi-1 cells for 24-hour and 48-hour treatments are plotted. Cell viability was measured with MTS. […] Scrambled or gene-targeting shRNA-stable MOLM13 or Kasumi-1 cells were treated with IC20 dose of KPT-9274 for 48 hour and stained with Annexin/PI for flow cytometry analysis. Data are shown as mean±SEM of % population from duplicates. FIGS. 2K-2L show representative data that KPT-9274 attenuates AML self-renewal and induces myeloid differentiation in HDAC8 or SIRT6-depleted cells. Quantification of the number of colonies formed by shRNA-stable Kasumi-1 and MOLM13 cells in the presence or absence of KPT-9274 in CFU assays. Indicated number of cells were seeded into Methocult and colonies were counted and replated by a double-blind approach after 7 days. […]

SIRT6-depleted cells = assay: Phospho-H2A.X staining in shSIRT6 cells with KPT-9274; assay type: cell-based; conditions: SIRT6-depleted cells compared with scrambled control, in the presence of KPT-9274
Description: (§1) Thereafter, cells were fixed, permeabilized and stained with BV421 mouse anti-H2A.X (pS139) (Clone N1-431). Stained cells were analyzed by flow cytometry. Results are shown as mean±SEM of duplicates. *p<0.05. N.S.: not significant. […] Results are shown as mean±SEM of duplicates. *p<0.05. […] MOLM13 cells were treated with vehicle control, 0.4 μM or 0.8 μM AR-42 alone, 0.1 μM or 0.25 μM KPT-2974 alone and drug combination for 24 hours before being subject to Western blotting analysis of HR, NHEJ and ATM markers. GAPDH served as loading control. Results are representative of two independent experiments. In the FIG. the treatment concentrations, protein detected in the given Western blot, and molecular weight of the protein detected are as shown in the figure. […] Scrambled or shHDAC8-transduced MOLM13 cells were treated with vehicle, 0.1 μM or 0.25 μM KPT-2974 before being subject to immunoblotting analysis of DNA repair targets. GAPDH serves as loading control. Results are representative of two independent experiments. In the FIG. the treatment concentrations, protein detected in the given Western blot, and molecular weight of the protein detected are as shown in the figure. […] PAPR1 was immunoprecipitated and mono-ADP-ribosylation was detected by western blotting. […]
(§2) To elucidate the mechanism of the synergism between shSIRT6 and KPT-9274, the accumulation of phosph-H2A.X was measured. […]

PARP1 = assay: co-IP and western blotting of PARP1 mono-ADP-ribosylation; assay type: cell-based; conditions: eradicated by knockdown of SIRT6
Description: as §1, §2

SMILES	tolerability of dose [1]	percentage of apoptotic cells ([2]; HDAC8 depletion)	apoptosis of AML cells ([2]; SIRT6 depletion)	DNA damage, phospho-H2A.X staining (SIRT6-depleted cells)	mono-ADP-ribosylation of PARP1 (PARP1)
CC(C)[C@H](C(=O)Nc1ccc(C(=O)NO)cc1)c1ccccc1 [AR-42, (S)—N-Hydroxy-4-(3-methyl-2-phenylbutanamido)benzamide]	tolerated	–	–	–	–
Nc1ccc(/C=C/C(=O)NCc2cc3cc(-c4ccc(C(=O)N5CCC(F)(F)CC5)cc4)cc(-c4ccc(F)cc4)c3o2)cn1 [KPT-9274, (E)-3-(6-aminopyridin-3-yl)-N-[[5-[4-(4,4-difluoropiperidine-1-carbonyl)phenyl]-7-(4-fluorophenyl)-1-benzofuran-2-yl]methyl]prop-2-enamide]	–	significantly increase	enhance apoptosis	increased phospho-H2A.X staining	enhanced
